Data taken from US9321764B2, “Dihydro-pyrrolopyridinone inhibitors” (AbbVie Inc., priority 2013, dated 2016).

Legend:
BRD4 (BDII_E352-M457) = biological target: T1, BRD4 (BDII_E352-M457) (Homo sapiens, UniProt O60885); experiment: TR-FRET bromodomain binding assay, second bromodomain of BRD4; conditions: His-tagged BD2, 30 nM Alexa647 probe; TR-FRET protocol A-E given per row
T1 construct: proliferation; Protocol; made in house
Protocol: (§1) A time-resolved fluorescence resonance energy transfer (TR-FRET) assay was used to determine the affinities of compounds of the Examples listed in Table 1 for each bromodomain of BRD4. His-tagged first (BD1: amino acids K57-E168) and second (BD2: amino acids E352-E168) bromodomains of BRD4 were expressed and purified. An Alexa647-labeled BET-inhibitor was used as the fluorescent probe in the assay.
(§2) Compound dilution series were prepared in DMSO via an approximately 3-fold serial dilution from one of the following:
(§3) Assay method D: 2.5 mM-800 nM
For Assay methods A, C, and D: Compounds were then diluted 6:100 in assay buffer (20 mM Sodium Phosphate, pH 6.0, 50 mM NaCl, 1 mM Ethylenediaminetetraacetic acid, 0.01% Triton X-100, 1 mM DL-Dithiothreitol) to yield 3× working solutions. […] Twelve μL of this solution were added to the assay plate to reach a final volume of 18 μL.
TR-FRET data were normalized to the means of 24 no-compound controls (“high”) and 8 controls containing 1 μM un-labeled probe (“low”). Percent inhibition was plotted as a function of compound concentration and the data were fit with the 4 parameter logistic equation to obtain IC50s Inhibition constants (Ki) were calculated from the IC50s, probe Kd and probe concentration. Typical Z′ values were between 0.65 and 0.75.

BRD4 (BDI_K57-E168) = biological target: T2, BRD4 (BDI_K57-E168) (Homo sapiens, UniProt O60885); experiment: TR-FRET bromodomain binding assay, first bromodomain of BRD4; conditions: His-tagged BD1, 100 nM Alexa647 probe; TR-FRET protocol A-E given per row
T2 construct: BD1: amino acids K57-E168; made in house
Protocol: as §1, §2
Assay method A: 250 μM-4.2 nM
Assay method B: 0.47 mM to 7.8 nM
Assay method C: 500 μM-8.5 nM
as §3
Assay method E: 0.047 mM to 0.78 nM or 5-fold serial dilution from Assay method D
For Assay methods A, C, and D: Compounds were then diluted 6:100 in assay buffer (20 mM Sodium Phosphate, pH 6.0, 50 mM NaCl, 1 mM Ethylenediaminetetraacetic acid, 0.01% Triton X-100, 1 mM DL-Dithiothreitol) to yield 3× working solutions. Six microliters (μL) of the working solution was then transferred to white, low-volume assay plates (Costar #3673). A 1.5× assay mixture containing His-tagged bromodomain, Europium-conjugated anti-His antibody (Invitrogen PV5596) and the Alexa-647-conjugated probe molecule was also prepared. Twelve μL of this solution were added to the assay plate to reach a final volume of 18 μL.
For Assay methods B and E: Compound dilutions were added directly into white, low-volume assay plates (Perkin Elmer Proxiplate 384 Plus #6008280) using a Labcyte Echo in conjunction with Labcyte Access and Thermo Multidrop CombinL robotics. Compounds were then suspended in eight microliters (μL) of assay buffer (20 mM Sodium Phosphate, pH 6.0, 50 mM NaCl, 1 mM Ethylenediaminetetraacetic acid disodium salt dihydrate, 0.01% Triton X-100, 1 mM DL-Dithiothreitol) containing His-tagged bromodomain, Europium-conjugated anti-His antibody (Invitrogen PV5596) and Alexa-647-conjugated probe.
The final concentration of 1× assay mixture for assay methods A, B, C, D, and E contains 2% DMSO, 8 nM His-tagged bromodomain, 1 nM Europium-conjugated anti-His-tag antibody and 100 nM or 30 nM probe (for BDI or BDII, respectively) and compound concentration in the range of: 5 μM-85 pM for method A, 9.19 μM 150 pM for method B, 10 μM-169 pM for method C, 50 μM-16 nM for method D, and 0.92 μM-15 pM for method E.
After a one-hour equilibration at room temperature, TR-FRET ratios were determined using an Envision multilabel plate reader (Ex 340, Em 495/520).
TR-FRET data were normalized to the means of 24 no-compound controls (“high”) and 8 controls containing 1 μM un-labeled probe (“low”). Percent inhibition was plotted as a function of compound concentration and the data were fit with the 4 parameter logistic equation to obtain IC50s Inhibition constants (Ki) were calculated from the IC50s, probe Kd and probe concentration. Typical Z′ values were between 0.65 and 0.75. The minimum significant ratio was determined to evaluate assay reproducibility (Eastwood et al., (2006) J Biomol Screen, 11: 253-261). The MSR was determined to be 2.03 for BDI and 1.93 for BDII, and a moving MSR (last six run MSR overtime) for both BDI and BDII was typically <3.

Ki (BRD4 (BDII_E352-M457)) [nM]	Ki (BRD4 (BDI_K57-E168)) [nM]	Compound
> 4000	1150	Cn1cc(-c2cc(CNS(=O)(=O)c3cc(Cl)sc3Cl)ccc2Oc2ccc(F)cc2F)c2cc[nH]c(=O)c21 [Example 138, 2,5-dichloro-N-[4-(2,4-difluorophenoxy)-3-(1-methyl-7-oxo-6,7-dihydro-1H-pyrrolo[2,3-c]pyridin-3-yl)benzyl]thiophene-3-sulfonamide]
2310	870	Cn1cc(-c2ccccc2NCC2CC2)c2cc[nH]c(=O)c21 [Example 142, 3-{2-[(cyclopropylmethyl)amino]phenyl}-1-methyl-1,6-dihydro-7H-pyrrolo[2,3-c]pyridin-7-one]
1680	446	Cn1cc(-c2cc(CS(C)(=O)=O)cnc2Cl)c2cc[nH]c(=O)c21 [Example 143, 3-{2-chloro-5-[(methylsulfonyl)methyl]pyridin-3-yl}-1-methyl-1,6-dihydro-7H-pyrrolo[2,3-c]pyridin-7-one]
296	174	Cn1cc(-c2cc(F)cnc2Nc2ccc(F)cc2)c2cc[nH]c(=O)c21 [Example 145, 3-{5-fluoro-2-[(4-fluorophenyl)amino]pyridin-3-yl}-1-methyl-1,6-dihydro-7H-pyrrolo[2,3-c]pyridin-7-one]
90.1	25.3	Cn1cc(-c2cc(N)ccc2Oc2ccc(F)cc2F)c2cc[nH]c(=O)c21 [Example 146, 3-[5-amino-2-(2,4-difluorophenoxy)phenyl]-1-methyl-1,6-dihydro-7H-pyrrolo[2,3-c]pyridin-7-one]
134	59.4	CC(C)CCC(=O)Nc1ccc(Oc2ccc(F)cc2F)c(-c2cn(C)c3c(=O)[nH]ccc23)c1 [Example 147, N-[4-(2,4-difluorophenoxy)-3-(1-methyl-7-oxo-6,7-dihydro-1H-pyrrolo[2,3-c]pyridin-3-yl)phenyl]-4-methylpentanamide]
54	41.6	COc1ccccc1CC(=O)Nc1ccc(Oc2ccc(F)cc2F)c(-c2cn(C)c3c(=O)[nH]ccc23)c1 [Example 149, N-[4-(2,4-difluorophenoxy)-3-(1-methyl-7-oxo-6,7-dihydro-1H-pyrrolo[2,3-c]pyridin-3-yl)phenyl]-2-(2-methoxyphenyl)acetamide]
145	22	Cn1cc(-c2cc(NC(=O)c3ccccn3)ccc2Oc2ccc(F)cc2F)c2cc[nH]c(=O)c21 [Example 150, N-[4-(2,4-difluorophenoxy)-3-(1-methyl-7-oxo-6,7-dihydro-1H-pyrrolo[2,3-c]pyridin-3-yl)phenyl]pyridine-2-carboxamide]
95.3	141	Cn1cc(-c2cc(NC(=O)CCc3ccccc3)ccc2Oc2ccc(F)cc2F)c2cc[nH]c(=O)c21 [Example 152, N-[4-(2,4-difluorophenoxy)-3-(1-methyl-7-oxo-6,7-dihydro-1H-pyrrolo[2,3-c]pyridin-3-yl)phenyl]-3-phenylpropanamide]
293	321	Cn1cc(-c2cc(NC(=O)CCCOc3ccccc3)ccc2Oc2ccc(F)cc2F)c2cc[nH]c(=O)c21 [Example 153, N-[4-(2,4-difluorophenoxy)-3-(1-methyl-7-oxo-6,7-dihydro-1H-pyrrolo[2,3-c]pyridin-3-yl)phenyl]-4-phenoxybutanamide]
> 920	598	Cn1cc(-c2cc(NC(=O)c3ccc(COc4ccccc4)cc3)ccc2Oc2ccc(F)cc2F)c2cc[nH]c(=O)c21 [Example 156, N-[4-(2,4-difluorophenoxy)-3-(1-methyl-7-oxo-6,7-dihydro-1H-pyrrolo[2,3-c]pyridin-3-yl)phenyl]-4-(phenoxymethyl)benzamide]
333	118	Cn1cc(-c2cc(NC(=O)C3CCN(c4ccccc4)C3=O)ccc2Oc2ccc(F)cc2F)c2cc[nH]c(=O)c21 (stereo not shown) [Example 157, N-[4-(2,4-difluorophenoxy)-3-(1-methyl-7-oxo-6,7-dihydro-1H-pyrrolo[2,3-c]pyridin-3-yl)phenyl]-2-oxo-1-phenylpyrrolidine-3-carboxamide]
153	76.4	Cn1cc(-c2cc(NC(=O)Cc3noc4ccccc34)ccc2Oc2ccc(F)cc2F)c2cc[nH]c(=O)c21 [Example 158, 2-(1,2-benzoxazol-3-yl)-N-[4-(2,4-difluorophenoxy)-3-(1-methyl-7-oxo-6,7-dihydro-1H-pyrrolo[2,3-c]pyridin-3-yl)phenyl]acetamide]
59.6	62.4	Cn1cc(-c2cc(NC(=O)Cc3cc(Cl)ccc3F)ccc2Oc2ccc(F)cc2F)c2cc[nH]c(=O)c21 [Example 159, 2-(5-chloro-2-fluorophenyl)-N-[4-(2,4-difluorophenoxy)-3-(1-methyl-7-oxo-6,7-dihydro-1H-pyrrolo[2,3-c]pyridin-3-yl)phenyl]acetamide]
> 408	101	Cn1cc(-c2cc(NC(=O)Cc3ccc(Cl)cc3F)ccc2Oc2ccc(F)cc2F)c2cc[nH]c(=O)c21 [Example 160, 2-(4-chloro-2-fluorophenyl)-N-[4-(2,4-difluorophenoxy)-3-(1-methyl-7-oxo-6,7-dihydro-1H-pyrrolo[2,3-c]pyridin-3-yl)phenyl]acetamide]
79.1	> 238	Cc1ccc(CC(=O)Nc2ccc(Oc3ccc(F)cc3F)c(-c3cn(C)c4c(=O)[nH]ccc34)c2)cn1 [Example 161, N-[4-(2,4-difluorophenoxy)-3-(1-methyl-7-oxo-6,7-dihydro-1H-pyrrolo[2,3-c]pyridin-3-yl)phenyl]-2-(6-methylpyridin-3-yl)acetamide]
183	146	Cn1cc(-c2cc(NC(=O)Cc3ccc4c(c3)CCCO4)ccc2Oc2ccc(F)cc2F)c2cc[nH]c(=O)c21 [Example 162, N-[4-(2,4-difluorophenoxy)-3-(1-methyl-7-oxo-6,7-dihydro-1H-pyrrolo[2,3-c]pyridin-3-yl)phenyl]-2-(3,4-dihydro-2H-chromen-6-yl)acetamide]
81.3	24	Cc1ncc(CC(=O)Nc2ccc(Oc3ccc(F)cc3F)c(-c3cn(C)c4c(=O)[nH]ccc34)c2)s1 [Example 163, N-[4-(2,4-difluorophenoxy)-3-(1-methyl-7-oxo-6,7-dihydro-1H-pyrrolo[2,3-c]pyridin-3-yl)phenyl]-2-(2-methyl-1,3-thiazol-5-yl)acetamide]
73	11	Cc1cc(CC(=O)Nc2ccc(Oc3ccc(F)cc3F)c(-c3cn(C)c4c(=O)[nH]ccc34)c2)nn1C [Example 164, N-[4-(2,4-difluorophenoxy)-3-(1-methyl-7-oxo-6,7-dihydro-1H-pyrrolo[2,3-c]pyridin-3-yl)phenyl]-2-(1,5-dimethyl-1H-pyrazol-3-yl)acetamide]
105	214	Cn1cc(-c2cc(NC(=O)Cn3cc(-c4ccccc4F)cn3)ccc2Oc2ccc(F)cc2F)c2cc[nH]c(=O)c21 [Example 165, N-[4-(2,4-difluorophenoxy)-3-(1-methyl-7-oxo-6,7-dihydro-1H-pyrrolo[2,3-c]pyridin-3-yl)phenyl]-2-[4-(2-fluorophenyl)-1H-pyrazol-1-yl]acetamide]
